Experiments:
IP3 receptor = details: Gafni et al., 1997; cited from earlier work
NF-κB [1] = assay: Cell-free EMSA of NF-κB binding activity in brain cortex cytoplasmic fraction; type: biochemical, rat; details: 1 h; calcium 1 μM to 10 mM; 10 μM BAPTA-AM alone or with 10 μM calcium
Procedure: (§1) Total cell extracts were prepared as described (Baeuerle and Baltimore, 1988, Cell 53:211-217). Briefly, cells were harvested, washed twice with ice-cold PBS and lysed for 30 min at 4° C. in Totex buffer (20 mM HEPES, pH 7.9, 350 mM NaC1, 20% glycerol, 1% NP-40, 1 mM MgC12, 0.5 mM EDTA, 0.1 mM EGTA, 5 mM DTT, 0.1% PMSF, 1% aprotinin, 4 μg/ml leupeptin). Samples were centrifuged at 14,000× g for 10 min and aliquots of supernatant were collected and stored at −70° C. until taken for assay. The protein content of the extract (supernatant) was measured by Bradford method (BIO-RAD Laboratories, Ercules, Calif., USA). […]
(§2) After 20 min at room temperature, reaction products were separated on a 7% non-denaturing polyacrylamide gel. […] Radioactivity of dried gels was detected by exposure to Kodak X-Omat film and images on the developed film were scanned into a computer using a UMAX 1200s scanner. […]

CREB [2] = assay: Cell-free EMSA of CREB binding activity in brain cortex cytoplasmic fraction; type: biochemical, rat; details: calcium 10 μM, 100 μM and 1 mM, 1 h
Procedure: as §1, §2

NF-κB [3] = assay: EMSA of NF-κB binding activity in cultured primary cortical neurons; type: cell-based, rat; details: 6 h; for induction of NF-κB binding activity by the agent alone: cortical neurons, 100 ng/ml TNFα, 100 nM Tg or 20 μM glutamate
Procedure: Cerebral cortices were removed from embryonic day 18 Sprague-Dawley rats (Harlan, Indianapolis, Ind.). Cells were dissociated as described previously (Mattson et al., 1995, J. Neurochem. 65:1740-1751.) and were seeded into polyethyleneimine-coated 60 mm culture dishes containing Eagle's Minimum Essential Medium supplemented with 26 mM NaHCO3, 40 mM glucose, 20 mM KCl, 1 mM sodium pyruvate, 10% (v/v) heat-inactivated fetal bovine serum (Sigma, St. Louis, Mo.), and 0.001% gentamycin sulfate. After a 3-5 h incubation period to allow for cell attachment, the medium was replaced with 2 ml of Neurobasal Medium with B27 supplements (GIBCO Life Technologies, Grand Island, N.Y.). […] Experimental treatments were performed on 7-to-9-day-old neuronal cultures in which there were approximately 5% contaminating glial cells.
Total cell extracts were prepared as described (Baeuerle and Baltimore, 1988, Cell 53:211-217). Briefly, cells were harvested, washed twice with ice-cold PBS and lysed for 30 min at 4° C. in Totex buffer (20 mM HEPES, pH 7.9, 350 mM NaC1, 20% glycerol, 1% NP-40, 1 mM MgC12, 0.5 mM EDTA, 0.1 mM EGTA, 5 mM DTT, 0.1% PMSF, 1% aprotinin, 4 μg/ml leupeptin). Samples were centrifuged at 14,000× g for 10 min and aliquots of supernatant were collected and stored at −70° C. until taken for assay. The protein content of the extract (supernatant) was measured by Bradford method (BIO-RAD Laboratories, Ercules, Calif., USA).
After 20 min at room temperature, reaction products were separated on a 7% non-denaturing polyacrylamide gel. Competition experiments were performed by incubating extracts with labeled oligonucleotide probe in the presence of 100-fold molar excess unlabeled NF-KB or CREB oligonucleotide. To characterize the NF-KB complexes, supershift assays were performed. Extracts were preincubated for 45 min at room temperature with antibodies recognizing either p50 or p65 sub-units of NF-κB (Santa Cruz Biotechnology, Santa Cruz, Calif.) or c-Fos (Oncogene Research Products, Cambridge, Mass.). The mixtures were further incubated with ^32P-labeled probe and resolved as described above. Radioactivity of dried gels was detected by exposure to Kodak X-Omat film and images on the developed film were scanned into a computer using a UMAX 1200s scanner. Densitometry was performed using Scion Image software (Scion Inc., Frederick, Md.). Paint Shop Pro software (JASC Inc. Minneapolis, Minn.) was used for preparation of the final figures.
(§3) The possible involvement of endoplasmic reticulum pools of intracellular calcium regulated by IP3 receptors in controlling basal levels of NF-κB was investigated using Xestospongin C (XeC) a specific membrane permeable modulator of IP3-mediated Ca^2+release (Gafni et al., 1997, Neuron 19:723-733; Hu et al., 1999, J. Biol. Chem. 274:33995-33998), and thapsigargin (Tg), a specific inhibitor of ER calcium/ATPase (Thastrup et al., 1990, Proc. Natl. Acad. Sci. USA 87:2466-2470; Davidson and Varhol, 1995, J. Biol. Chem. 270:11731-11734.). Cultured primary cortical neurons were treated with either 1 μM XeC, 100 nM Tg or vehicle for 6 h and protein extracts were analyzed for NF-κB binding activity by EMSA electrophoresis.

CREB [4] = assay: EMSA of CREB binding activity in cultured primary cortical neurons; type: cell-based, rat
Procedure: Cerebral cortices were removed from embryonic day 18 Sprague-Dawley rats (Harlan, Indianapolis, Ind.). Cells were dissociated as described previously (Mattson et al., 1995, J. Neurochem. 65:1740-1751.) and were seeded into polyethyleneimine-coated 60 mm culture dishes containing Eagle's Minimum Essential Medium supplemented with 26 mM NaHCO3, 40 mM glucose, 20 mM KCl, 1 mM sodium pyruvate, 10% (v/v) heat-inactivated fetal bovine serum (Sigma, St. Louis, Mo.), and 0.001% gentamycin sulfate. After a 3-5 h incubation period to allow for cell attachment, the medium was replaced with 2 ml of Neurobasal Medium with B27 supplements (GIBCO Life Technologies, Grand Island, N.Y.). Previous observations have shown that greater than 80% of the cells that attach in the first few hours after plating will survive longer than 7 days in Neurobasal Medium with no additional neurotrophic factors. Experimental treatments were performed on 7-to-9-day-old neuronal cultures in which there were approximately 5% contaminating glial cells.
as §1, §2, §3

[5] = system: IP3 receptors on microsomes; assay: Microsome extract (MSE) effect on cytoplasmic NF-κB binding activity; type: biochemical, rat; details: direct activation of IP3 receptors on microsomes with IP3
Procedure: Cerebral cortices from adult female Sprague-Dawley rats were homogenized (20 strokes at 300 rpm) with a Teflon homogenizer in ice-cold buffer containing 1 mM EDTA, 0.32 M sucrose, 0.1 mM dithiothreitol and 1 mM HEPES as described previously (Chen et al., 1998, Diabetes 47:874-81) and cytoplasmic and microsome fractions were isolated by differential centrifugation. Briefly, tissue fragments and cellular debris were removed by centrifugation at 500 g for 10 min and supernatants were centrifuged at 20,000 g for 20 min to pellet intact mitochondria and nuclei. The supernatant was then centrifuged at 100,000 g for 1 h in order to obtain the cytoplasmic fraction and the microsomal pellet enriched in endoplasmic reticulum and golgi membranes. Microsome extracts (MSE) were prepared by suspending microsomes in 1:100 v/v ice-cold buffer and centrifuging at 100,000× g for 1 hr. Microsomes were then re-suspended in 1:2 v/v volume buffer and treated as described below. At the end of the treatment, the suspension was centrifuged at 100,000 g for 1 h, and supernatants were used as MSE. For experiments involving incubation of MSE with cytoplasmic extract, 3 μl of MSE were added to 10 μl cytoplasmic extract and mixtures were incubated at room temperature for 1 h.
[…] After 1 h at room temperature, samples were examined for NF-κB binding activity.
Indeed, the role calcium plays in this paradigm seems to be as an intraluminal signal.

In the case of `O[C@@]12CCCCCC[C@H]3CCN4CCC[C@@H](CCCCCC[C@H]5CCN(CCC1)[C@@H]2O5)[C@H]4O3` [DMXeB, demethylxestospongin B], the “block of IP3-mediated calcium release” value (IP3 receptor) is given as “potent blockers”.
In the case of `[Ca+2]` [calcium], the “NF-κB binding activity in cytoplasmic fraction” value (NF-κB [1]) is reported as “none of the calcium concentrations used increased NF-κB binding activity” and the “CREB binding activity in cytoplasmic fraction” value (CREB [2]) is reported as “greatly enhanced”.
For `O[C@@]12CCCCCC[C@H]3CCN4CCC[C@H](CCCCCC[C@H]5CCN(CCC1)[C@@H]2O5)[C@H]4O3` [XeD], the “block of IP3-mediated calcium release” value (IP3 receptor) is listed as “potent blockers”.
For “tumor necrosis factor α [TNFα, reference compound]”, the “induction of NF-κB binding activity by the agent alone” value (NF-κB [3]) was “statistically significant (p<0.05) enhancement” and the “binding activity of CREB, agent alone” value (CREB [4]; cortical neurons, XeC 30 min pretreatment, 100 ng/ml TNFα 6 h, FIG. 2a) was “neither TNFα nor XeC alone affected the binding activity of CREB”.
For `C1CCC[C@H]2CCCN3CC[C@H](CCCCCC[C@H]4CCCN5CC[C@H](CC1)O[C@H]45)O[C@H]23` [ArB, Araguspongine B], the “block of IP3-mediated calcium release” value (IP3 receptor) is given as “potent blockers”.
For `CC(=O)OCOC(=O)CN(CC(=O)OCOC(C)=O)c1ccccc1OCCOc1ccccc1N(CC(=O)OCOC(C)=O)CC(=O)OCOC(C)=O` [BAPTA-AM], the “NF-κB binding activity in cytoplasmic fraction” value (NF-κB [1]) was “had no affect”.
With `O=P(O)(O)O[C@@H]1[C@H](O)[C@H](O)[C@@H](OP(=O)(O)O)[C@H](OP(=O)(O)O)[C@H]1O` [IP3, inositol-1,4,5 triphosphate, reference compound] the “NF-κB stimulating properties of MSE from treated microsomes” value [5] was “NF-κB stimulating properties similar to that seen with Tg”.
With `C/C=C(/C)C(=O)O[C@H]1C(C)=C2[C@H]([C@@H]1OC(=O)CCCCCCC)[C@@](C)(OC(C)=O)C[C@H](OC(=O)CCC)[C@@]1(O)[C@H]2OC(=O)[C@@]1(C)O` [Tg, thapsigargin, reference compound] the “induction of NF-κB binding activity by the agent alone” value (NF-κB [3]) was “Induction of NF-κB binding activity was observed”, the “basal NF-κB binding activity relative to control levels” value (NF-κB [3]; cultured primary cortical neurons, 1 μM XeC or 100 nM Tg, EMSA) was “statistically significant (p<0.05) elevation” and the CREB binding activity (CREB [4]; cultured primary cortical neurons, 6 h, 1 μM XeC or 100 nM Tg, data not shown) was “slightly augmented CREB binding activity; however, this was not statistically significant”.
